The text below walks through data of patent publication US5739300A, “Antiadhesive piperidine-and pyrrolidinecarboxylic acids” (Hoechst Aktiengesellschaft, priority 1995, dated 1998).

Test [1] has as its target T1, E-selectin (Homo sapiens, UniProt P16581).
T1 construct: genetically engineered soluble fusion proteins from the extracytoplasmic domain of E- or P-selectin in each case; made in house; host or cells: COS-7 cells (ATCC), transiently transfected; culture supernatant captured on anti-human IgG
The test can be described thus: HL60 cell adhesion assay on recombinant, soluble E-selectin-IgG1 fusion protein. The test is classed as cell-based. To be noted: read-out: IC 50 values for E-selectin. The source says: (§1) Primary assays for the investigation of the action of the compounds of the present invention for cell adhesion to recombinant, soluble selectin fusion proteins.
(§2) In order to test the activity of the compounds according to the invention on the interaction between the E- and P-selectins (old nomenclature ELAM-1 and GMP-140) with their ligands, an assay is used which is only specific for one of these interactions in each case. The ligands are supplied in their natural form as surface structures on promyelocytic HL60 cells. As HL60 cells have ligands and adhesion molecules of very different specificity, the desired specificity of the assay can only be produced by means of the binding component. The binding components used were genetically engineered soluble fusion proteins from the extracytoplasmic domain of E- or P-selectin in each case and the constant region of a human immunoglobulin of the subclass IgG1.
Preparation of L-selectin-IgG1
To prepare soluble L-selectin-IgG1 fusion protein, the genetic construct "ELAM-Rg" published by Walz et al., 1990 was used.
For expression, the plasmid DNA was transfected in COS-7 cells (ATCC) by means of DEAE-dextran (Molecular biological methods: see Ausubel, F. M., Brent, R., Kingston, R. E., Moore, D. D., Seidman, J. G., Struhl, K. and Smith, J. A. 1990. Current Protocols in Molecular Biology, John Wiley, New York). Seven days after transfection, the culture supernatant is recovered, freed from cells and cell fragments by centrifugation and transferred to 25 mM HEPES pH 7.0, 0.3 mM PMSF, 0.02% sodium azide and kept at +4° C. (Walz, G., Aruffo, A., Kolanus, W., Bevilacqua, M. and Seed, B. 1990. Recognition by ELAM-1 of the sialyl-Lex determinant on myeloid and tumor cells. Science 250, 1132-1135.)
(§3) Carrying out the HL60 cell adhesion assays on recombinant, soluble adhesion molecules
(§4) 1. 96-well microtiter test plates (Nunc Maxisorb) are incubated at room temperature for 2 hours with 100 μl of a goat anti-human IgG antibody (Sigma) diluted (1+100) in 50 mM tris pH 9.5. After removing the antibody solution, washing is carried out once with PBS.
(§5) 2. 150 μl of the blocking buffer are left in the wells for 1 hour at room temperature. The composition of the blocking buffer is: 0.1% gelatin, 1% BSA, 5% calf serum, 0.2 mM PMSF, 0.02% sodium azide. After removing the blocking buffer, washing is carried out once with PBS.
(§6) 3. 100 μl each of cell culture supernatant of correspondingly transfected and expressing COS cells are pipetted into the wells, Incubation is carried out for 2 hours at room temperature. After removing the cell culture supernatant, washing is carried out once with PBS.
4. 20 μl of binding buffer are added to the wells. […]

The test system of test [2] is P-selectin. The test can be described thus: HL60 cell adhesion assay on recombinant, soluble P-selectin-IgG1 fusion protein. The test is classed as cell-based. To be noted: read-out: IC 50 values for P-selectin.
From the text: as §1, §2
Preparation of P-selectin-IgG1
To prepare the soluble P-selectin-lgG1 fusion protein, the genetic construct "CD62Rg" published by Aruffo et al., 1991 is used. The further procedure corresponds to the preparation of L-selectin-IgG1 presented under A1.
Aruffo, A., Kolanus, W., Walz, G., Fredman, P. and Seed, B. 1991. CD62/-P-Selectin recognition of myeloid and tumor cell sulfatides. Cell 67, 35-44.
as §3, §4, §5, §6
4. 20 μl of binding buffer are added to the wells. The binding buffer has the composition: 50 mM HEPES, pH 7.5; 100 mM NaCl; 1 mg/ml BSA; 2 mM MgCl2; 1 mM CaCl2; 3 mM MnCl2; 0.02% sodium azide; 0.2 mM PMSF. To do this, 5 μl of the test substance are pipetted, mixed by swirling the plate and incubated at room temperature for 10 min.
5. 50 ml of a HL60 cell culture having 200,000 cells/ml are centrifuged at 350 g for 4 min. The pellet is resuspended in 10 ml of RPMI 1640 and the cells are centrifuged again. […]

Test [3] has as its system adhesion of leukocytes to the endothelium. Briefly: Leukocyte adhesion in vivo, intravital microscopy in the rat (mesenterium, LPS-induced). The note with it: SPRD (m) rat, LPS 15 mg/kg, vs untreated control. The text has this:
Leukocyte adhesion--Testing of the activity of the compounds according to the invention in vivo (intravital microscopy in the rat):
The induced adhesion of leukocytes is quantified in the mesenterium of the rat using an intravital microscopic investigation technique (Atherton A. and Born G. V. R., Quantitative investigations of the adhesiveness of circulating polymorphonuclear leukocytes to blood vessel walls. J. Physiol. 222, 447-474, 1972; Seiffge, D. Methoden zur Untersuchung der Rezeptor-vermittelten Interaktion zwischen Leukozyten und Endothelzellen im Entzundungsgeschehen [Methods for investigation of the receptor-mediated interaction between leukocytes and endothelial cells in inflammatory phenomena], in: Ersatz- und Erganzungsmethoden zu Tierversuchen in der biomedizinischen Forschung [Substitution and replacement methods for animal experiments in biomedical research], Schoffl, H. et al., (ed.) Springer, 1995 (in print)). Lasting anesthesia is initiated under inhalation ether anesthesia by intramuscular injection of urethane ([…] of body weight). After exposing vessels (femoral vein for the injection of substances and carotid artery for blood pressure measurement), catheters are tied into them. After this, the corresponding transparent tissue (mesenterium) is exposed by the standard methods known in the literature and arranged on the microscope stage and coated with warm liquid paraffin at 37° C. (Menger, M. D. and Lehr, H, A., Scope and perspectives of intravital microscopy-bridge over from in vitro to in vivo, Immunology Today 14, 519-522, 1993). […] The increased adhesion of leukocytes to the endothelium caused by this means is quantified by direct vital microscopy or with the aid of fluorescent dyes. All measuring operations are recorded by video camera and stored on a video recorder. Over a period of 60 minutes, the number of rolling leukocytes (i.e. all visibly rolling leukocytes which are slower than the flowing erythrocytes) and the number of leukocytes adhering to the endothelium (residence period longer than 5 seconds) is determined every 10 minutes. […]

Test [4] relates to open rabbit heart perfused with leukocytes. Briefly: Reperfusion model: adhesion of neutrophils in ischemia/reperfusion on the open rabbit heart (Langendorff). The protocol: Reperfusion model for investigation of the effects of the adhesion of neutrophils in the course of ischemia/reperfusion on the open rabbit heart
The hearts are perfused at constant pressure according to the Langendorff technique with nutrient solution and also with/without leukocytes or active compound. Ischemia is then produced by tying off the left coronary artery (30 min). After reperfusion (30 min), the leukocyte accumulation is histologically assessed. In the course of the experiment, potentials and arrhythmias are additionally measured on 256 electrodes (total time of experiment about 90 min).

A value given as a limit tells only on which side of the number the result lay.

T1 sequence (P16581 with tags, fused parts or gaps): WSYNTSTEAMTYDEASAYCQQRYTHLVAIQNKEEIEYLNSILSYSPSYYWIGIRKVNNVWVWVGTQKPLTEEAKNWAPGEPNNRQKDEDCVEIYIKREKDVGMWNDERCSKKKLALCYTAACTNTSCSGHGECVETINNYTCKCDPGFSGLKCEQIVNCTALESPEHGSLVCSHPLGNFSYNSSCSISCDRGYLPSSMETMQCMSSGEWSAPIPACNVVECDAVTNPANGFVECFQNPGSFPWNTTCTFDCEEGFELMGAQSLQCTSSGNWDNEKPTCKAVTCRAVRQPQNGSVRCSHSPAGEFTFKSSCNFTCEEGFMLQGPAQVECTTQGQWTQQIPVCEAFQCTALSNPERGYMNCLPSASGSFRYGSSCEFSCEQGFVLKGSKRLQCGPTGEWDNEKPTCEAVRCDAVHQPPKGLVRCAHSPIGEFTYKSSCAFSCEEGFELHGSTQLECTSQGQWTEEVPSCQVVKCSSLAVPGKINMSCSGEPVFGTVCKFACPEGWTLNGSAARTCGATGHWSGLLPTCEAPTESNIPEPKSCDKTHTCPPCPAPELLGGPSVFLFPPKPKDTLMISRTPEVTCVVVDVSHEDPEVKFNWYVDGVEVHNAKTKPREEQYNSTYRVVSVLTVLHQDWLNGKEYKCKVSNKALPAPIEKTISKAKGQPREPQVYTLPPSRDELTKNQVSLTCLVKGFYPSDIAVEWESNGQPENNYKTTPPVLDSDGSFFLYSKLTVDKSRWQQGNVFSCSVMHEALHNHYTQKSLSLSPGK

With `C[C@@H]1O[C@@H](O[C@@H]2CCC[C@H]2OC(=O)N2CCC(C(=O)O)CC2)[C@@H](O)[C@H](O)[C@@H]1O` [Compound 1e, N-Carbonyl-4-carboxypiperidyl-(1→2)-[(α-L-fucopyranosyl)-(1→1)]-(1R, 2R)-trans-1,2-cyclopentanediol], the IC50 was found to be 3700 µM in test [1] and 2850 µM in test [2].

Regarding `C[C@@H]1O[C@@H](O[C@@H]2CCCC[C@H]2OC(=O)N2CCC(C(=O)O)CC2)[C@@H](O)[C@H](O)[C@@H]1O` [Compound 3a, N-Carbonyl-4-carboxypiperidyl-(1→2)-[(α-L-fucopyranosyl)-(1→1)]-(1R, 2R)-trans-1,2-cyclohexanediol], the IC50 in test [1] and in test [2] was over 2000 µM in each case. Further, the entries for the “inhibition (of leukocyte adhesion)” value in test [3] (1 mg/kg i.v.), in test [3] (5 mg/kg i.v.) and in test [3] (10 mg/kg i.v.) were 64%, 69% and 81%, respectively. In test [4] (in the range from about 1 μM), the reduction of arrhythmias result is “considerable reduction of arrhythmias”.

Take `C[C@@H]1O[C@@H](O[C@@H]2CCCC[C@H]2OC(=O)N2CCC(C(=O)O)(C(=O)O)CC2)[C@@H](O)[C@H](O)[C@@H]1O` [Compound 3e, N-Carbonyl-4,4-dicarboxypiperidyl-(1→2)-[(α-L-fucopyranosyl)-(1→1)]-(1R, 2R)-trans-1,2-cyclohexanediol]: the IC50 amounted to 1600 µM in test [1] and 7500 µM in test [2].

Consider `C[C@@H]1O[C@@H](O[C@@H]2CCCC[C@H]2OC(=O)N2CCCC(CC(C(=O)O)C(=O)O)C2)[C@@H](O)[C@H](O)[C@@H]1O` (stereo partly drawn) [Compound 4b, [N-Carbonyl-(1,1-dicarboxyl-ethyl)-(2→3)-piperidyl]-(1→2)-[(α-L-fuco-pyranosyl)-(1→1)]-(1R, 2R)-trans-1,2-cyclohexanediol], for which the IC50 in test [1] and in test [2] was over 2000 µM each time.

On to “chondroitin sulfate [reference compound]”, for which the “leukocyte accumulation and arrhythmias” value in test [4] (hearts perfused with leukocytes and active compound, vs untreated hearts) was “reduced leukocyte accumulation and arrhythmias”.
